In patent US5976783A, “Bis-maleimido cross-linking agents” (Boehringer Mannheim Corporation, priority 1997, dated 1999):

How the values were obtained:
[1] = stability of 4-maleimidobutyraldehyde on work-up; format: physicochemical; conditions: work-up needed low temperatures (0° C.) and complete exclusion of oxygen
Method: 4-Maleimidobutyraldehyde diethylacetal (2 g, 8.29 mmol) in tetrahydrofuran (20 ml) and water (0.5 ml) was stirred under argon and DOWEX 50X8 ion exchange resin (H^+, 2 g, ® Dow Chemical Co.) was added. After 12 hours stirring at room temperature, the solvent was decanted, dried (MgSO4) and evaporated in vacuo to afford 4-maleimidobutyraldehyde (formula III) as a yellow oil which rapidly solidified on standing (1.38 g, 99%); TLC Rf=0.4, ethyl acetate/hexane 1:1.

ICE protease = conditions: See Nature 375:78-81 (1995); cited from earlier work

stability [1] | SMILES | inhibition of ICE protease (ICE protease)
extremely unstable | O=CCCCN1C(=O)C=CC1=O [4-maleimidobutyraldehyde] | 
 | CC(=O)N[C@@H](Cc1ccc(O)cc1)C(=O)N[C@H](C(=O)N[C@@H](C)C(=O)N[C@@H](CC(=O)O)C(=O)CCl)C(C)C [Ac-Tyr-Val-Ala-Asp-*] | potent inhibitor
